This note sets out measurements from paper PMC9146423, “Discovery of Nitro-azolo[1,5-a]pyrimidines with Anti-Inflammatory and Protective Activity against LPS-Induced Acute Lung Injury” (Pharmaceuticals, 2022).

The subject of series [1] is peritoneal macrophages of C57bl/6j mice. Nature of the series: Yeast phagocytosis assay and macrophage spreading. The class given is cell-based, mouse. As to the method: Next, we evaluated lead compound 9g for immunodepressant activity in parallel with the reference drug dexamethasone. Yeast phagocytosis was assessed by microscopic examination as the number of phagocytes per 100 macrophages and as the number of phagocytosed yeast cells in each phagocyte. Cell viability was assessed as lactate dehydrogenase activity in cell supernatants, which correlates with increased cell membrane permeability.
Peritoneal macrophages of C57bl/6j mice were cultured in a 24-well plate at a volume of 500 μL/well (1 × 10^5 cells/mL) for 24 h. Test compounds or DMSO were added to wells in triplicate followed by 50 μL of 1% yeast suspension, and the plates were incubated for 40 min. After 24 or 72 h, the medium was removed. The cells were fixed with May–Grunwald methanol dye and stained with Azur-Eosin in Romanovsky’s modification for 45 min at room temperature, washed, air-dried, and analyzed using a microscope Mikmed-6 (Russia), equipped with a digital camera. The study was performed in three technical replicates and two series; 100 macrophages were processed in each sample to count the captured yeast cells. Macrophage spreading was assessed as a number of pseudopodia.

Series [2] deals with LPS-stimulated peritoneal macrophages of C57bl/6j mice. Nature of the series: Cell viability of LPS-stimulated macrophages, MTT test. The class given is cell-based. To be noted: male, C57bl/6j, mouse, 24 h, 100 μM. How it is done: (§1) Peritoneal macrophages (PM) were isolated from the peritoneal exudate of 30 male C57bl/6j mice. To accumulate PM, 1 mL of 3% peptone solution was injected intraperitoneally. After 3 days, the mice were euthanized by cervical dislocation. Cells of peritoneal exudate were obtained by aseptic washing of the abdominal cavity with 5 mL of sterile Hanks’s solution (+4–6 °C) without calcium and magnesium ions. The total number and viability of cells were assessed in a Goryaev counting chamber (Russia) with a 0.4% trypan blue staining (Sigma-Aldrich, St. Louis, MO, USA). The cell concentration was adjusted to 1.0 × 10^6 cells/mL in DMEM (Gibco) supplemented with 2 mM L-glutamine (Gibco, Waltham, MA, USA), 10% heat-inactivated fetal bovine serum (BioClot, Bavaria, Germany), 100 U/mL penicillin, and […] streptomycin (Gibco) and plated 200 μL/well in 96-well transparent plates (SPL Life Sciences Co., Ltd., Pocheon-si, Korea). After 2 h at 37 °C in a humidified atmosphere with 5% CO2, the wells were washed to remove non-adherent cells. After 24 h of incubation, 20 μL of the supernatants were substituted with 20 μL of solutions of test compounds, followed by E. coli O127:B8 LPS (100 ng/mL final concentration) after 30 min. The experiments were run in 3 independent replicates.
The activity of lactate dehydrogenase (LDH) in a cell culture medium served as a marker of membrane permeability and cell death. Aliquotes of supernatants were taken after 24 h of inoculation with test compounds, mixed with 250 μL of […] NADH solution in 54 mM phosphate-buffered saline (pH 7.5). Then, 25 μL of a 6.48 mM pyruvate solution was added to the mixture. The optical density was followed at a wavelength of 340 nm for 20 min. The MTT-test was performed 24 h after incubations of cells with tested compounds. Briefly, 20 μL of MTT solution was added to each well, incubated at 37 °C in a humidified atmosphere containing 5% CO2 for 4 h. The culture medium was removed, the cells were lysed, and formazan crystals were dissolved in 150 μL DMSO. The plates were shaken at room temperature for 10 min, and the optical density was measured in a microplate reader Infinite M200 PRO (Tecan, Grödig, Austria) at a wavelength of 565 nm.
A general note: Tetrazolium dyes change colour on reduction, which living cells bring about.

The test system is the same in series [3]. Kind of series: Inhibition of LPS-induced NO synthesis (nitrite accumulation, Griess reagent) in peritoneal macrophages. The class given is cell-based, mouse. To be noted: 100 μM; m ± SD. As to the method: as §1
The accumulation of the nitrite anion (a stable end product of NO decomposition produced by iNOS) in supernatants was determined using a standard Griess reagent. Briefly, 50 μL of supernatants were collected 22 h after incubation of PM, and the test and control compounds were mixed with 50 μL of 1% […] in 2.5% H3PO4 and 50 μL of 0.1% N-(1-naphthyl) ethylenediamine in 2.5% H3PO4. After incubation at 23 °C for 10 min in an orbital shaker, the optical density was determined at a wavelength of 550 nm with a microplate reader Infinite M200 PRO (Tecan, Grödig, Austria).

The subject of a further series is C57BL/6J mice. Kind of series: LPS-induced acute lung injury in mice. The class given is in vivo, mouse. How it is done: The randomization of C57bl/6j mice into experimental and control groups was based on body weight and behavioral activity assessed in an open field test 24 h before the start of the experiment. The next day, mice were treated with vehicle or test compounds 1 h before intratracheal instillation of LPS solution in sterile saline.
The randomization of C57BL/6J mice was performed by body weight and motor activity in an open field test. Dexamethasone (5 mg/kg) and 9g (30 mg/kg) were administered intraperitoneally in 10 mL/kg sterile saline. The control animals received an equal volume of the vehicle. After 1 h, the mice were anesthetized with isoflurane inhalation until their breathing rate was decreased. The mice were suspended by the front incisors on an inclined surgical table, the tongue was pulled out with narrow curved tweezers, and 1 mg/mL of E. coli O127:B8 LPS (Sigma-Aldrich, St. Louis, MO, USA) in 1 mL/kg sterile saline was injected into the back of the oropharynx. Intact control animals received an equal volume of sterile saline similarly.
The animals were placed in the center of a round open field with an arena of 44 cm diameter and 32 cm wall height under 300 lux lighting. During 5 min of observation, horizontal motor activity, vertical motor activity, time spent in the central part, the number of exits to the central part, and exploratory activity parameters were recorded. Body temperature was determined rectally.
The mice were anesthetized with 500 mg/kg chloral hydrate (Sigma-Aldrich, St. Louis, MO, USA) intraperitoneally 24 h after LPS administration. Blood was taken by intracardiac puncture in test tubes with heparin. The blood samples were centrifuged at 1000 g and 4 °C for 15 min on a 2–16PK centrifuge (Sigma, Germany), and plasma was separated and stored at −80 °C until the assay. Thoracotomy was performed, the ligature was applied to the left bronchus and the trachea was cannulated with a 20 G needle. The right lung was washed twice with 0.7 mL of warm sterile saline. After combining aliquots, the bronchoalveolar lavage (BAL) was centrifuged at 800 g and 4 °C for 10 min. The supernatant was separated and stored at −80 °C until the assay. The residual cell pellet was resuspended in 50 μL of PBS for further study. The left lung was washed in saline and placed in 10% buffered formalin for morphological evaluation.
The total number of leukocytes in heparinized blood was determined after staining with methylene blue in Goryaev’s counting chamber at ×100 magnification. Smears of blood and BAL cell pellets were air-dried, fixed according to May–Grunwald for 3 min, and stained according to Romanowsky–Giemsa. After 30 min, the slides were washed, air-dried, and examined with immersion objective (×1000 total magnification). On each slide, a total of at least 100 cells were calculated.
The concentration of total protein in BAL supernatants was determined spectrophotometrically with the pyrogallol red method, and the protein in the blood plasma was determined with the biuret method using commercial kits (Vital, Saint Petersburg, Russia) and bovine serum albumin as the standard. The lung permeability index was calculated as the protein concentration in the BAL to plasma ratio.
Morphological markers of inflammation in lung tissue were assessed in a semi-quantitative way on paraffin sections stained with hematoxylin and eosin. The sections were examined under a light microscope (Zeiss, Germany) by a double-blind method. The score of inflammation was determined as follows: 0—the presence of single inflammatory cells; 1—weak inflammation, inflammatory cells infiltrate no more than 10% of the lung tissue, including interalveolar cell partitions; 2—moderate inflammation, inflammatory cells infiltrate no more than 50% of the structures of the lung, but the interstitial tissue is identified; 3—severe inflammation, inflammatory cells densely infiltrate more than 50% of the lung tissue and airways.

The mark [4] stands for this setting: 24 h after LPS, dexamethasone 5 mg/kg, 9g 30 mg/kg i.p.

As to `C[C@@H]1C[C@H]2[C@@H]3CCC4=CC(=O)C=C[C@]4(C)[C@@]3(F)[C@@H](O)C[C@]2(C)[C@@]1(O)C(=O)CO` [Dexamethasone, reference compound], the Suppression of phagocytosis result in series [1] (after 24-h of incubation, data not shown) was “significantly suppressed phagocytosis”. In series [1] (after 72 h of incubation), the “Decrease of the mean number of phagocytosed yeast cells” value was 59%. In addition, in series [2], the “Cell Viability vs. LPS Control, MTT Test” value is recorded as 104.21 ± 2.18%. Also, in series [3], the “Inhibition of NO Synthesis vs. LPS Control” value is on record as 90.91 ± 5.53 %. In the series on C57BL/6J mice (24 h after LPS), the Blood leukocyte subpopulations entry is “normalized leukocyte subpopulations to the values of intact animals” and the “CD68+ cells in lung tissue, immunostaining” value is listed as “rarely detected”. In the series with C57BL/6J mice (24 h after LPS, H&E, semi-quantitative), the “LPS-induced lung lesions, histologic scoring (hemorrhage and neutrophil infiltration)” value was “significantly ameliorated”. In addition, in the series with C57BL/6J mice (setting [4]), the “Blood plasma IL-6 level” value is given as “normalized the blood plasma IL-6 level” and the “Permeability of pulmonary vessels (lung permeability index)” value is recorded as “prevent the increase in permeability of pulmonary vessels”. Besides, the “Horizontal motor activity, open field test” value with C57BL/6J mice (24 h after LPS, dexamethasone 5 mg/kg, 9g 30 mg/kg i.p. 1 h before LPS) was “significant improvement”. The “Segmented neutrophils count in BAL (in words)” value with C57BL/6J mice (24 h after LPS, monocytes in BAL increased) is “significantly decreased the segmented neutrophils count”. For the same compound, the “Spleen mass and lymphocyte content (markers of immunodepression)” value in the series with C57BL/6J mice (LPS-treated mice, dexamethasone 5 mg/kg, 9g 30 mg/kg i.p.) is recorded as “significantly reduced”. For the same compound, the LPS-induced hypothermia entry with C57BL/6J mice (body temperature determined rectally) is reported as “attenuated LPS-induced hypothermia”. For the same compound, the “Segmented neutrophils, share of BAL cells” value with C57BL/6J mice (bronchoalveolar lavage 24 h after LPS, dexamethasone 5 mg/kg, 9g 30 mg/kg i.p.) is recorded as 22.5%. For the same compound, the “Number of center entries and time in the center, open field test” value in the series with C57BL/6J mice (dexamethasone 5 mg/kg, 9g 30 mg/kg i.p.) is “restored the number of center entries and time in the center to intact levels”.
